Among the data in patent US12391683B2, “Therapeutic compounds and methods” (Actio Biosciences, Inc., priority 2022, dated 2025) are EC50 and IC50 values, retold here.

In this experiment the target is T1, TRPC5 channels (Homo sapiens, UniProt Q9UL62).
T1 construct: expressed in transfected cells; host or cells: HEK293
T1 sequence (Q9UL62 1-973): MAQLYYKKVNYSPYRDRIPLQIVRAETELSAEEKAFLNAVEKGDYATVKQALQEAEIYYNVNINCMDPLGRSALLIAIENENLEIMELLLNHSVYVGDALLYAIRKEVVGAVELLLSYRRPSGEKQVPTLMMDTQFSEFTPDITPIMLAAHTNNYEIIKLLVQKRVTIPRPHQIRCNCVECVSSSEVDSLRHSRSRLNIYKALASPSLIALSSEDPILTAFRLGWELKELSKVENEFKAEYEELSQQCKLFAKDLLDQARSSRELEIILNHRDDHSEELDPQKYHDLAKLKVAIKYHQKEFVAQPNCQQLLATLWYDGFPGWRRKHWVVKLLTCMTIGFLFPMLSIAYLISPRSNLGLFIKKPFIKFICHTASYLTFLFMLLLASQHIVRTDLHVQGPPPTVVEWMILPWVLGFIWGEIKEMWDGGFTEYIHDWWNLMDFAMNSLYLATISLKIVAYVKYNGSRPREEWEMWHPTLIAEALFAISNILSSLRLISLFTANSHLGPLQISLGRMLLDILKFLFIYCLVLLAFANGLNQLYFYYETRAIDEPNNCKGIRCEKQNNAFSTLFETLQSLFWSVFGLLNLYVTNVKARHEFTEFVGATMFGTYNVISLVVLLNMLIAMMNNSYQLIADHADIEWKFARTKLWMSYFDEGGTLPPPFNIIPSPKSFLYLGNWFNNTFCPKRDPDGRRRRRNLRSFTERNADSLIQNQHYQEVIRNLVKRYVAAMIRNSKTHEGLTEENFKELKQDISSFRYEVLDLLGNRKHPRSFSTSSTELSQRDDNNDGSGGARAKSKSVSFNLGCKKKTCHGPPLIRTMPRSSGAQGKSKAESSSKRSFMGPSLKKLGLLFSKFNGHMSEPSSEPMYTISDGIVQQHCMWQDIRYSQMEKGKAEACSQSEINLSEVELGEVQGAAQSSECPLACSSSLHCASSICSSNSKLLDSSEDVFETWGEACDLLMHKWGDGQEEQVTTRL
The experiment is described as follows: TRP Family FLIPR Assay, TRPC5. The experiment is classed as cell-based. The settings on record: HEK293 cells. The procedure: The compound of Example 5 was tested for selectivity against a panel of Human TRP family ion channels in a TRP Family FLIPR Assay as described below. • 1. TRPC3 channels (human TRPC3 variant 1 gene, expressed in HEK293 cells). • 2. TRPC4 channels (human TRPC4 gene, expressed in HEK293 cells). • 3. TRPC5 channels (human TRPC5 gene, expressed in HEK293 cells). • 4. TRPC6 channels (human TRPC6 gene, expressed in HEK293 cells). • 5. TRPM2 channels (human TRPM2 gene, transiently expressed in HEK293 cells). • 6. TRPM3 channels (human TRPM3 gene, transiently expressed in HEK293 cells). • 7. TRPM4 channels (human TRPM4 gene, expressed in CHO cells). • 8. […]
Data acquisition was performed via the FLIPR Control software supplied with the FLIPR System (MDS-AT) and data was analyzed using Microsoft Excel (Microsoft Corp., Redmond, WA) or GraphPad Prism. […]
[formula] where Base is the response at low concentrations of test article, Max is the maximum response at high concentrations, xhalf the EC50, or IC50, the concentration of test article producing either half-maximal activation or inhibition, and rate is the Hill coefficient. […] No assumptions about the fit parameters was made; the fit parameters were determined by the algorithm.
The effect of each test article was evaluated at eight (8) concentrations: 0.003, 0.01, 0.03, 0.1, 0.3, 1, 3 and 10 μM, n≤4 wells/concentration). […]

As a reminder, the EC50 is the concentration giving half of the maximal effect. A word on the IC50: it is the concentration at which inhibition is half-maximal. For the compound `CC(C)(O)c1cnc(N2C[C@@]3(CC[C@@H](F)[C@](C)(Cn4cnc5ccc(C#N)cc54)C3)OC2=O)cn1` (single isomer, unassigned) [Example 5], the EC50 (agonist mode, vs EMAX of (−)-Englerin A 30 μM, read-out: EC50 hTRPC5) was over 10 µM. The concentration for half-maximal inhibition (IC50) (antagonist mode, activated with 0.5 μM (−)-Englerin A, 0.003-10 μM, read-out: IC50 hTRPC5) was over 10 µM.
